In patent US10471088B2 (GNOSIS SPA, priority 2006, dated 2019):
Several values for one entry are separate records, joined by “and”; a condition that tells them apart may be missing. Equal entries are not always repeated.

Experiments:
[1] = Analysis of starting material lots (SAMe salts, NADH) prior to / after mixing with calcium oxide, t = 0 and storage at 20° C. for 21 days; assay type: physicochemical; conditions: for permanent removal of the moisture content: mixture with calcium oxide stored for 21 days at 20° C.; for residual moisture content: starting material
[2] = Accelerated stability (stress test 5 days at 53° C.) of starting material lots prior to / after mixing with calcium oxide; assay type: physicochemical; conditions: for Moisture content % K.F. (stress test) / Total impurities % (stress test) / % S,S (stress test) / SAMe titre % (stress test): 5 days at 53° C.; for permanent removal of the moisture content: mixture with calcium oxide after the stress test at 53° C. for 5 days
[3] = after mixing with calcium oxide
[4] = prior to mixing with calcium oxide

Compound	Moisture content % K.F. t = 0 [1, 3]	Moisture content % K.F. t = 21 days at 20° C. [1, 3]	permanent removal of the moisture content [1]	Moisture content % K.F. t = 0 [1, 4]	Moisture content % K.F. t = 21 days at 20° C. [1, 4]	residual moisture content [1]	Moisture content % K.F. (stress test) [2, 3]	Total impurities % (stress test) [2, 3]	permanent removal of the moisture content [2]	Moisture content % K.F. (stress test) [2, 4]	Total impurities % (stress test) [2, 4]	% S,S t = 0 [1, 3]	SAMe titre % t = 0 [1, 3]	Total impurities % t = 0 [1, 3]	% S,S t = 0 [1, 4]	SAMe titre % t = 0 [1, 4]	Total impurities % t = 0 [1, 4]	% S,S (stress test) [2, 3]	SAMe titre % (stress test) [2, 3]	% S,S (stress test) [2, 4]	also measured
NC(=O)C1=CN([C@@H]2O[C@H](COP(=O)(O)OP(=O)(O)OC[C@H]3O[C@@H](n4cnc5c(N)ncnc54)[C@H](O)[C@@H]3O)[C@@H](O)[C@H]2O)C=CC1 [NADH]	6.44% and 7.23% and 6.87% and 6.21% and 6.33%	4.01% and 4.39% and 3.98% and 3.20% and 4.32%	approximately 40%	6.66% and 7.09% and 5.94% and 6.45% and 6.38%	6.34% and 6.87% and 5.76% and 6.32%	5-7 % K.F.	3.23% and 3.54% and 3.10% and 3.49% and 3.45%	2.67% and 3.14% and 3.02% and 2.45% and 3.54%	approximately 60%	6.23% and 6.54% and 5.00% and 6.09% and 6.05%	8.55% and 7.34% and 7.02% and 7.17% and 7.54%	–	–	–	–	–	–	–	–	–	NADH (sodium salt) titre % t = 0 ([1]; after mixing with 10% of calcium oxide): 83.93 (*) % and 84.23 (*) % and 83.95 (*) % and 84.53 (*) % and 85.32 (*) %; NADH (sodium salt) titre % t = 0 [1, 4]: 92.73% and 92.23% and 92.45% and 92.43% and 91.98%; NADH (sodium salt) titre % t = 0 (stress test) [2, 3]: 80.56% and 82.56% and 82.49% and 81.19% and 82.34%; NADH (sodium salt) titre % t = 0 (stress test) [2, 4]: 83.11% and 84.58% and 83.99% and 82.19% and 83.84%
C[S+](CC[C@H](N)C(=O)O)C[C@H]1O[C@@H](n2cnc3c(N)ncnc32)[C@H](O)[C@@H]1O.Cc1ccc(S(=O)(=O)[O-])cc1 (some centres unmarked) [S-adenosyl methionine paratoluene sulphonate]	1.04% and 0.95% and 0.98% and 1.16% and 1.00%	0.59% and 0.61% and 0.63% and 0.55% and 0.70%	approximately 40%	1.09% and 1.04% and 1.15% and 1.08% and 1.06%	1.09% and 1.12% and 1.13% and 1.05% and 1.03%	–	0.35% and 0.38% and 0.43% and 0.41% and 0.39%	2.89% and 3.02% and 3.17% and 2.78% and 2.65%	approximately 60%	0.99% and 1.00% and 1.09% and 1.05% and 1.03%	4.34% and 5.02% and 5.17% and 5.54% and 4.55%	79.99% and 81.23% and 80.67% and 80.32% and 80.11%	50.23% and 50.19% and 50.22% and 50.02% and 50.16%	0.94% and 1.04% and 0.66% and 0.73% and 1.03%	79.82% and 81.54% and 80.87% and 80.02% and 80.21%	52.23% and 52.29% and 52.96% and 51.98% and 52.76%	0.94% and 1.04% and 0.66% and 0.73% and 1.03%	65.79% and 67.25% and 66.47% and 65.43% and 66.56%	49.98% and 49.87% and 50.09% and 50.00% and 49.81%	55.79% and 55.28% and 56.21% and 56.31% and 56.12%	SAMe titre % (stress test) [2, 4]: 49.58% and 49.99% and 51.19% and 50.84% and 50.11%
C[S+](CC[C@H](N)C(=O)[O-])C[C@H]1O[C@@H](n2cnc3c(N)ncnc32)[C@H](O)[C@@H]1O (some centres unmarked) [SAMe, S-adenosyl methionine]	–	–	–	–	–	1-1.5 % K.F.	–	–	–	–	–	–	–	–	–	–	–	–	–	–	–
S-adenosyl methionine-1,4-butene disulphonate	1.80% and 1.84% and 1.94% and 1.89% and 1.87%	1.38% and 1.40% and 1.33% and 1.45% and 1.27%	approximately 40%	1.89% and 1.94% and 2.03% and 2.01% and 1.98%	1.99% and 2.02% and 2.03% and 2.31%	–	0.81% and 0.88% and 0.78% and 0.87% and 0.93%	2.13% and 1.35% and 2.03% and 1.98% and 2.00%	approximately 60%	1.96% and 1.93% and 2.09% and 2.21% and 2.00%	4.63% and 4.47% and 4.06% and 4.23% and 4.05%	84.54% and 85.25% and 84.21% and 85.02% and 83.49%	50.34% and 50.08% and 50.01% and 49.78% and 50.12%	0.57% and 0.53% and 0.49% and 0.50%	84.82% and 85.34% and 84.58% and 83.89%	52.02% and 51.78% and 51.34% and 51.54% and 52.34%	0.67% and 0.64% and 0.44% and 0.56% and 0.45%	71.89% and 70.94% and 70.34% and 70.02% and 71.32%	50.04% and 50.00% and 50.01% and 49.89%	59.49% and 58.98% and 59.43% and 60.02% and 60.32%	SAMe titre % (stress test) [2, 4]: 51.72% and 50.79% and 50.94% and 50.93% and 51.03%
